Results reported in US6737383B1, “Herbicidal oxadiazolidines” (priority 1999, dated 2004).

Key:
blackgrass = experiment: Test B pre/postemergence blackgrass; format: in vivo, Alopecurus myosuroides
Procedure, shortened: (§1)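 Test chemicals in a non-phytotoxic solvent mixture with surfactant were sprayed preemergence onto planted seeds and postemergence onto plants 2 to 18 cm tall (1- to 4-leaf stage). After twelve to sixteen days in a greenhouse, injury was visually rated against untreated controls from 0 (no effect) to 10 (complete control).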

sugar beet = experiment: Test B pre/postemergence sugar beet; format: in vivo, Beta vulgaris
Procedure, shortened: as §1

bedstraw = experiment: Test B pre/postemergence bedstraw; format: in vivo, Galium aparine
Procedure, shortened: as §1

bamyardgrass = experiment: Test B flood test barnyardgrass; format: in vivo, Echinochloa crus-galli
Procedure, shortened: (§2)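 Flood test on plants grown to the 2-leaf stage; treated plants kept in greenhouse twelve to sixteen days, then visually rated against controls on a 0 (no effect) to 10 (complete control) scale.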

duck salad = experiment: Test B flood test duck salad; format: in vivo, Heteranthera limosa
Procedure, shortened: as §2

corn = experiment: Test B pre/postemergence corn; format: in vivo, Zea mays
Procedure, shortened: as §1

smallflower flatsedge = experiment: Test B flood test smallflower flatsedge; format: in vivo, Cyperus difformis
Procedure, shortened: as §2

giant foxtail = experiment: Test B pre/postemergence giant foxtail; format: in vivo, Setaria faberii
Procedure, shortened: as §1

wild oat = experiment: Test B pre/postemergence wild oat; format: in vivo, Avena fatua
Procedure, shortened: as §1

rice = experiment: Test B flood test rice; format: in vivo, Oryza sativa
Procedure, shortened: as §2

morningglory = experiment: Test B pre/postemergence morningglory; format: in vivo, Ipomoea hederacea
Procedure, shortened: as §1

wheat = experiment: Test B pre/postemergence wheat; format: in vivo, Triticum aestivum
Procedure, shortened: as §1

rape = experiment: Test B pre/postemergence rape; format: in vivo, Brassica napus
Procedure, shortened: as §1

soybean = experiment: Test B pre/postemergence soybean; format: in vivo, Glycine max
Procedure, shortened: as §1

cocklebur = experiment: Test B pre/postemergence cocklebur; format: in vivo, Xanthium strumarium
Procedure, shortened: as §1

purple nutsedge = experiment: Test B pre/postemergence purple nutsedge; format: in vivo, Cyperus rotundus; settings: Postemergence
Procedure, shortened: as §1

surinam grass = experiment: Test B pre/postemergence surinam grass; format: in vivo, Brachiaria decumbens
Procedure, shortened: as §1

crabgrass = experiment: Test B pre/postemergence crabgrass; format: in vivo, Digitaria sanguinalis
Procedure, shortened: as §1

velvetleaf = experiment: Test B pre/postemergence velvetleaf; format: in vivo, Abutilon theophrasti
Procedure, shortened: as §1

pigweed = experiment: Test B pre/postemergence pigweed; format: in vivo, Amaranthus retroflexus
Procedure, shortened: as §1

[1] = Preemergence, Rate 62 g/ha, scale of 0 to 10 where 0 is no effect and 10 is complete control
[2] = Preemergence, Rate 250 g/ha, scale of 0 to 10 where 0 is no effect and 10 is complete control
[3] = Preemergence, Rate 500 g/ha, scale of 0 to 10 where 0 is no effect and 10 is complete control
[4] = Rate 62 g/ha, Postemergence, scale of 0 to 10 where 0 is no effect and 10 is complete control
[5] = Rate 125 g/ha, Postemergence, scale 0 to 10
[6] = Rate 125 g/ha, Preemergence, scale of 0 to 10 where 0 is no effect and 10 is complete control
[7] = Rate 500 g/ha, Postemergence, scale 0 to 10, 0 no effect, 10 complete control
[8] = Rate 62 g/ha, headed Pre-emergence (flood test species), scale 0 to 10 (0 no effect, 10 complete control)
[9] = Rate 125 g/ha, Pre-emergence, flood test species, scale 0 to 10 where 0 is no effect and 10 is complete control
[10] = Rate 250 g/ha, Pre-emergence, flood-test species, scale 0 to 10, 0 is no effect, 10 is complete control
[11] = Rate 500 g/ha, Pre-emergence, flood test species, scale 0 to 10 (0 no effect, 10 complete control)

Compound: CC(C)N(C(=O)n1oc(=O)n(CC2CC2)c1=O)c1ccc(F)cc1 [Compound 251]
- Blackgrass plant response rating (blackgrass; [1]): 6
- Blackgrass plant response rating (blackgrass; [2]): 9
- Plant response rating, Blackgrass (blackgrass; [3]): 10
- Blackgrass plant response rating (blackgrass; [4]): 0
- Blackgrass plant response rating (blackgrass; [5]): 4
- Blackgrass plant response rating (blackgrass; [6]): 8
- Plant response rating (0 to 10; 0 is no effect, 10 is complete control), Blackgrass (blackgrass; Rate 250 g/ha, Postemergence): 8
- Blackgrass plant response rating (blackgrass; [7]): 8
- Sugarbeets plant response rating (sugar beet; [1]): 6
- Sugarbeets plant response rating (sugar beet; [2]): 10
- Plant response rating, Sugarbeets (sugar beet; [3]): 10
- Sugarbeets plant response rating (sugar beet; [6]): 10
- Sugarbeets plant response rating (sugar beet; [7]): 2
- Bedstraw plant response rating (bedstraw; [1]): 0
- Bedstraw plant response rating (bedstraw; [2]): 10
- Plant response rating, Bedstraw (bedstraw; [3]): 10
- Bedstraw plant response rating (bedstraw; [4]): 2
- Bedstraw plant response rating (bedstraw; [5]): 6
- Bedstraw plant response rating (bedstraw; [6]): 0
- Plant response rating (0 to 10; 0 is no effect, 10 is complete control), Bedstraw (bedstraw; Rate 250 g/ha, Postemergence): 7
- Bedstraw plant response rating (bedstraw; [7]): 9
- Barnyardgrass plant response rating (bamyardgrass; [8]): 0
- Barnyardgrass plant response rating (bamyardgrass; [9]): 0
- Barnyardgrass plant response rating (bamyardgrass; [10]): 0
- Barnyardgrass plant response rating (bamyardgrass; [11]): 0
- Ducksalad plant response rating (duck salad; [8]): 0
- Ducksalad plant response rating (duck salad; [9]): 0
- Ducksalad plant response rating (duck salad; [10]): 0
- Ducksalad plant response rating (duck salad; [11]): 0
- Corn plant response rating (corn; [1]): 0
- Corn plant response rating (corn; [2]): 0
- Plant response rating, Corn (corn; [3]): 5
- Corn plant response rating (corn; [4]): 0
- Corn plant response rating (corn; [5]): 0
- Corn plant response rating (corn; [6]): 0
- Plant response rating (0 to 10; 0 is no effect, 10 is complete control), Corn (corn; Rate 250 g/ha, Postemergence): 0
- Corn plant response rating (corn; [7]): 0
- S. Flatsedge plant response rating (smallflower flatsedge; [8]): 0
- S. Flatsedge plant response rating (smallflower flatsedge; [9]): 0
- S. Flatsedge plant response rating (smallflower flatsedge; [10]): 0
- S. Flatsedge plant response rating (smallflower flatsedge; [11]): 0
- Giant foxtail plant response rating (giant foxtail; [1]): 8
- Giant foxtail plant response rating (giant foxtail; [2]): 10
- Plant response rating, Giant foxtail (giant foxtail; [3]): 10
- Giant foxtail plant response rating (giant foxtail; [6]): 10
- Plant response rating (0 to 10; 0 is no effect, 10 is complete control), Giant foxtail (giant foxtail; Rate 250 g/ha, Postemergence): 7
- Giant foxtail plant response rating (giant foxtail; [7]): 8
- Wild oats plant response rating (wild oat; [1]): 0
- Wild oats plant response rating (wild oat; [2]): 8
- Plant response rating, Wild oats (wild oat; [3]): 9
- Wild oats plant response rating (wild oat; [6]): 6
- Wild oats plant response rating (wild oat; [7]): 0
- Rice plant response rating (rice; [8]): 0
- Rice plant response rating (rice; [9]): 0
- Rice plant response rating (rice; [10]): 0
- Rice plant response rating (rice; [11]): 0
- Morningglory plant response rating (morningglory; [1]): 0
- Morningglory plant response rating (morningglory; [2]): 0
- Plant response rating, Morningglory (morningglory; [3]): 4
- Morningglory plant response rating (morningglory; [6]): 0
- Plant response rating (0 to 10; 0 is no effect, 10 is complete control), Morningglory (morningglory; Rate 250 g/ha, Postemergence): 7
- Morningglory plant response rating (morningglory; [7]): 9
- Wheat plant response rating (wheat; [1]): 0
- Wheat plant response rating (wheat; [2]): 0
- Plant response rating, Wheat (wheat; [3]): 8
- Wheat plant response rating (wheat; [6]): 0
- Wheat plant response rating (wheat; [7]): 2
- Rape plant response rating (rape; [1]): 0
- Rape plant response rating (rape; [2]): 9
- Plant response rating, Rape (rape; [3]): 10
- Rape plant response rating (rape; [6]): 9
- Plant response rating (0 to 10; 0 is no effect, 10 is complete control), Rape (rape; Rate 250 g/ha, Postemergence): 0
- Rape plant response rating (rape; [7]): 0
- Soybean plant response rating (soybean; [1]): 0
- Soybean plant response rating (soybean; [2]): 0
- Plant response rating, Soybean (soybean; [3]): 0
- Soybean plant response rating (soybean; [6]): 0
- Soybean plant response rating (soybean; [7]): 6
- Cocklebur plant response rating (cocklebur; [1]): 0
- Cocklebur plant response rating (cocklebur; [2]): 0
- Plant response rating, Cocklebur (cocklebur; [3]): 0
- Cocklebur plant response rating (cocklebur; [4]): 0
- Cocklebur plant response rating (cocklebur; [5]): 0
- Cocklebur plant response rating (cocklebur; [6]): 0
- Plant response rating (0 to 10; 0 is no effect, 10 is complete control), Cocklebur (cocklebur; Rate 250 g/ha, Postemergence): 0
- Cocklebur plant response rating (cocklebur; [7]): 3
- Plant response rating (0 to 10; 0 is no effect, 10 is complete control), Nutsedge (purple nutsedge; Rate 250 g/ha): 0
- Nutsedge plant response rating (purple nutsedge; Rate 500 g/ha, scale 0 to 10, 0 no effect, 10 complete control): 0
- B. signalgrass plant response rating (surinam grass; [1]): 2
- B. signalgrass plant response rating (surinam grass; [2]): 7
- Plant response rating, B. signalgrass (surinam grass; [3]): 9
- B. signalgrass plant response rating (surinam grass; [4]): 0
- B. signalgrass plant response rating (surinam grass; Rate 125 g/ha, Postemergence, scale 0 (no effect) to 10 (complete control)): 0
- B. signalgrass plant response rating (surinam grass; [6]): 3
- Plant response rating (0 to 10; 0 is no effect, 10 is complete control), B. signalgrass (surinam grass; Rate 250 g/ha, Postemergence): 0
- B. signalgrass plant response rating (surinam grass; [7]): 2
- Crabgrass plant response rating (crabgrass; [1]): 3
- Crabgrass plant response rating (crabgrass; [2]): 9
- Plant response rating, Crabgrass (crabgrass; [3]): 10
- Crabgrass plant response rating (crabgrass; [6]): 7
- Plant response rating (0 to 10; 0 is no effect, 10 is complete control), Crabgrass (crabgrass; Rate 250 g/ha, Postemergence): 6
- Crabgrass plant response rating (crabgrass; [7]): 9
- Velvetleaf plant response rating (velvetleaf; [1]): 0
- Velvetleaf plant response rating (velvetleaf; [2]): 5
- Plant response rating, Velvetleaf (velvetleaf; [3]): 7
- Velvetleaf plant response rating (velvetleaf; [6]): 4
- Velvetleaf plant response rating (velvetleaf; [7]): 0
- Redroot pigweed plant response rating (pigweed; [1]): 0
- Redroot pigweed plant response rating (pigweed; [2]): 10
- Plant response rating, Redroot pigweed (pigweed; [3]): 10
- Redroot pigweed plant response rating (pigweed; [6]): 5
- Plant response rating (0 to 10; 0 is no effect, 10 is complete control), Redroot pigweed (pigweed; Rate 250 g/ha, Postemergence): 2
- Redroot pigweed plant response rating (pigweed; [7]): 4
